For 33 compounds, IC50 and inhibition results are on record in ChEMBL document CHEMBL1212904, “Discovery of pyrrole-indoline-2-ones as Aurora kinase inhibitors with a different inhibition profile” (J Med Chem, 2010).

Assay [1] deals with HCT-116. In words: Antiproliferative activity against human HCT116 cells after 72 hrs by cell titer 96 assay. The class given is functional, cell-based. As to conditions: HCT-116, 72 h.
Another assay deals with HT-29. Kind of assay: Antiproliferative activity against human HT-29 cells after 72 hrs by cell titer 96 assay. The note with it: HT-29, 72 h. Type of assay: functional, cell-based.
In a further assay the target is T1, Aurora kinase A (Homo sapiens, UniProt O14965).
T1 sequence (O14965 whole entry): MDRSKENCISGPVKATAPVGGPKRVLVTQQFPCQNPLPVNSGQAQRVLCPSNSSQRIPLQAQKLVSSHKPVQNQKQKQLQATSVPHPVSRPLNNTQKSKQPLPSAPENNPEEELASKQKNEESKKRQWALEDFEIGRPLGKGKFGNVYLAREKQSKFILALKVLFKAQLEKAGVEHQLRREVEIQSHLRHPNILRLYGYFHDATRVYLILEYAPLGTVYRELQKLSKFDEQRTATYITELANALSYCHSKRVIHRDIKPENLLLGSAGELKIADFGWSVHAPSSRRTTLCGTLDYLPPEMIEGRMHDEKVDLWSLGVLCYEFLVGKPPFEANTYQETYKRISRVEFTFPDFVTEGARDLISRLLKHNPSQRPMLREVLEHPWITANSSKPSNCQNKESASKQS
Kind of assay: Inhibition of recombinant aurora A.

Assay [2] deals with HCT-116. In words: Antiproliferative activity against human HCT116 cells after 72 hrs by [3H]thymidine incorporation assay. The class given is functional, cell-based. On the technique in general: Incorporation of labelled thymidine or its analogues reports DNA synthesis.
For assay [3], the target named is T2, Aurora kinase B (Homo sapiens, UniProt Q96GD4). In words: Inhibition of recombinant aurora B at 1 uM.
T2 sequence (Q96GD4 whole entry): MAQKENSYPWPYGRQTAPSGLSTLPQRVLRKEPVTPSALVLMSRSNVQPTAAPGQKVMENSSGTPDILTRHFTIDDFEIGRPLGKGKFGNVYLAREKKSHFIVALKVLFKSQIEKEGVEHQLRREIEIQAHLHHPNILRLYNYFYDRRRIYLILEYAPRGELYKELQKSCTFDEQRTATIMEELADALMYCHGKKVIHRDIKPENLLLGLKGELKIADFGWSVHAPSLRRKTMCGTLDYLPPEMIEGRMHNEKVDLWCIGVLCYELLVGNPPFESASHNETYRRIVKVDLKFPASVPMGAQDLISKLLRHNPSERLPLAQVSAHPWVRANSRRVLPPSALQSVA
Assay [4] deals with T2, Aurora kinase B. In words: Inhibition of recombinant aurora B.
In the next assay the test system is HeLa. Kind of assay: Antiproliferative activity against human HeLa cells after 72 hrs by cell titer 96 assay. Type of assay: functional, cell-based.
Assay [5] addresses T3, Aurora kinase A (Homo sapiens) (UniProt O14965).
T3 sequence (whole entry): T1 sequence (O14965 whole entry)
In words: Inhibition of recombinant aurora A at 1 uM.

Broadly, the IC50 is the concentration that gives 50% inhibition. For the compound `O=C(O)CCc1c(/C=C2\C(=O)Nc3ccc(NS(=O)(=O)c4ccccc4)cc32)[nH]c2c1C(=O)CCC2`, the IC50 was greater than 10000 nM with HCT-116 [1], greater than 10000 nM in the assay with HT-29, 12 nM on Aurora kinase A and greater than 10000 nM in the assay with HCT-116 [2].

In general, inhibition refers to the relative decrease from the control value, in per cent. Take `CCOC(=O)CCc1c(/C=C2\C(=O)Nc3ccccc32)[nH]c2c1C(=O)CCC2`: the inhibition at Aurora kinase B [3] was found to be 2.3%.

Consider `COc1ccc(-c2ccc3c(c2)/C(=C/c2[nH]c4c(c2CCC(=O)O)C(=O)CCC4)C(=O)N3)cc1OC`, for which, on Aurora kinase B [3], the inhibition was 5.1%.

As to `CCN(CC)CCCc1c(/C=C2\C(=O)Nc3ccc(S(=O)(=O)N4CCc5ccccc54)cc32)[nH]c2c1C(=O)CCC2`, the IC50 with HCT-116 [1] was found to be 2660 nM; on Aurora kinase B [4] it was 616 nM; in the assay with HT-29 it was 2130 nM; at Aurora kinase A it was 2340 nM; in the assay on HeLa it was 3270 nM.

For `O=C(O)CCc1c(/C=C2\C(=O)Nc3ccc(S(=O)(=O)N4CCc5ccccc54)cc32)[nH]c2c1C(=O)CCC2`, the IC50 at Aurora kinase A is 8 nM.

Turning to `O=C1Nc2ccc(S(=O)(=O)N3CCc4ccccc43)cc2/C1=C/c1[nH]c2c(c1CCC(=O)N1CCOCC1)C(=O)CCC2`, the IC50 in the assay with HCT-116 [1] was greater than 10000 nM; on Aurora kinase B [4], 3150 nM; in the assay on HT-29 it was greater than 10000 nM; at Aurora kinase A, 563 nM; with HeLa, greater than 10000 nM.

Turning to `CN(C)CCCc1c(/C=C2\C(=O)Nc3ccc(S(=O)(=O)N4CCc5ccccc54)cc32)[nH]c2c1C(=O)CCC2`, the concentration for half-maximal inhibition (IC50) was 900 nM in the assay with HCT-116 [1]; 312 nM on Aurora kinase B [4]; 750 nM in the assay with HT-29; 2270 nM at Aurora kinase A; 1620 nM with HeLa.

Regarding `C=CCS(=O)(=O)c1ccc2c(c1)/C(=C/c1[nH]c3c(c1CCC(=O)O)C(=O)CCC3)C(=O)N2`, the IC50 on Aurora kinase A was found to be 39 nM. In addition, the inhibition at Aurora kinase B [3] was determined as 32.5%.

As to `CCN(CC)CCCc1c(/C=C2\C(=O)Nc3ccc(NS(=O)(=O)c4ccccc4)cc32)[nH]c2c1C(=O)CCC2`, the IC50 in the assay with HCT-116 [1] is greater than 10000 nM; on Aurora kinase B [4], 356 nM; with HT-29, greater than 10000 nM; at Aurora kinase A it was 2450 nM; in the assay with HeLa it was 8610 nM.

With `CC1(C)CC(=O)c2c([nH]c(/C=C3\C(=O)Nc4ccc(F)cc43)c2CCC(=O)O)C1`, the IC50 on Aurora kinase A was found to be 456 nM. Also, the inhibition on Aurora kinase B [3] amounted to 17.3%.

With `CC(=O)c1c(C)[nH]c(/C=C2\C(=O)Nc3ccc(F)cc32)c1CCC(=O)O`, the 50% inhibitory concentration (IC50) on Aurora kinase A turned out to be 362 nM. For the same compound, the inhibition on Aurora kinase B [3] was found to be 17.5%.

As to `NS(=O)(=O)c1ccc2c(c1)/C(=C/c1[nH]c3c(c1CCC(=O)O)C(=O)CCC3)C(=O)N2`, the inhibition on Aurora kinase B [3] is 34.1%.

On to `O=C1Nc2ccc(NS(=O)(=O)c3ccccc3)cc2/C1=C/c1[nH]c2c(c1CCCN1CCCC1)C(=O)CCC2`, for which the IC50 was greater than 10000 nM with HCT-116 [1]; 310 nM at Aurora kinase B [4]; 3320 nM with HT-29; 2170 nM at Aurora kinase A; greater than 10000 nM with HeLa.

On to `CCS(=O)(=O)Nc1ccc2c(c1)/C(=C/c1[nH]c3c(c1CCC(=O)O)C(=O)CCC3)C(=O)N2`, for which the IC50 on Aurora kinase A came to 34 nM. The inhibition on Aurora kinase B [3] is 7.3%.

Take `O=C(O)CCc1c(/C=C2\C(=O)Nc3ccccc32)[nH]c2c1C(=O)CCC2`: the inhibition on Aurora kinase B [3] came out at 13%.

As to `O=C(O)CCc1c(/C=C2\C(=O)Nc3ccc(NS(=O)(=O)c4ccc5ccccc5c4)cc32)[nH]c2c1C(=O)CCC2`, the inhibition came to 40.6% in assay [5] and 21% at Aurora kinase B [3].

In the case of `O=C(O)CCc1c(/C=C2\C(=O)Nc3ccc(Br)cc32)[nH]c2c1C(=O)CCC2`, the inhibition at Aurora kinase B [3] came to 6.8%.

Regarding `CNS(=O)(=O)c1ccc2c(c1)/C(=C/c1[nH]c3c(c1CCC(=O)O)C(=O)CCC3)C(=O)N2`, the inhibition on Aurora kinase B [3] amounted to 2.6%.

Turning to `O=C(O)CCc1c(/C=C2\C(=O)Nc3ccc(S(=O)(=O)N4CCCC4)cc32)[nH]c2c1C(=O)CCC2`, on Aurora kinase A, the IC50 was 7 nM.

`O=C(O)CCc1c(/C=C2\C(=O)Nc3ccc(S(=O)(=O)Cc4ccccc4)cc32)[nH]c2c1C(=O)CCC2`: the inhibition on Aurora kinase B [3] was found to be 11.2%.

For the compound `O=C(O)CCc1c(/C=C2\C(=O)Nc3ccc(S(=O)(=O)Cc4ccc(F)cc4)cc32)[nH]c2c1C(=O)CCC2`, the inhibition on Aurora kinase B [3] came to 15.5%.

Turning to `CC(=O)Nc1ccc2c(c1)/C(=C/c1[nH]c3c(c1CCC(=O)O)C(=O)CCC3)C(=O)N2`, the inhibition on Aurora kinase B [3] was 12.8%.

`O=C(O)CCc1c(/C=C2\C(=O)Nc3ccc(NC(=O)c4ccccc4)cc32)[nH]c2c1C(=O)CCC2`: the concentration for half-maximal inhibition (IC50) on Aurora kinase A came to 720 nM. In addition, the inhibition at Aurora kinase B [3] is 14.2%.

As to `CNC(=O)CCc1c(/C=C2\C(=O)Nc3ccc(NS(=O)(=O)c4ccccc4)cc32)[nH]c2c1C(=O)CCC2`, the IC50 in the assay on HCT-116 [1] was greater than 10000 nM; at Aurora kinase B [4], 320 nM; in the assay with HT-29, greater than 10000 nM; at Aurora kinase A it was 117 nM; in the assay on HeLa, greater than 10000 nM.

On to `COc1cc(-c2ccc3c(c2)/C(=C/c2[nH]c4c(c2CCC(=O)O)C(=O)CCC4)C(=O)N3)ccc1O`, for which the inhibition on Aurora kinase B [3] worked out at 12.4%.

As to `CCS(=O)(=O)c1ccc2c(c1)/C(=C/c1[nH]c3c(c1CCC(=O)O)C(=O)CCC3)C(=O)N2`, the IC50 at Aurora kinase A was 57 nM. For the same compound, the inhibition on Aurora kinase B [3] is 7%.

Take `O=C1Nc2ccc(NS(=O)(=O)c3ccccc3)cc2/C1=C/c1[nH]c2c(c1CCC(=O)N1CCOCC1)C(=O)CCC2`: the IC50 in the assay with HCT-116 [1] was greater than 10000 nM; at Aurora kinase B [4], 906 nM; with HT-29, greater than 10000 nM; at Aurora kinase A, 281 nM; with HeLa it was greater than 10000 nM.

For the compound `O=C(O)CCc1c(/C=C2\C(=O)Nc3ccc(F)cc32)[nH]c2c1C(=O)CCC2`, the inhibition on Aurora kinase B [3] was found to be 11.6%.

On to `O=C(O)CCc1c(/C=C2\C(=O)Nc3ccc([N+](=O)[O-])cc32)[nH]c2c1C(=O)CCC2`, for which the inhibition on Aurora kinase B [3] amounted to 3.4%.

As for `CCOC(=O)CCc1c(/C=C2\C(=O)Nc3ccc(F)cc32)[nH]c2c1C(=O)CCC2`, the inhibition on Aurora kinase B [3] was determined as 3%.

Turning to `CN(C)S(=O)(=O)c1ccc2c(c1)/C(=C/c1[nH]c3c(c1CCC(=O)O)C(=O)CCC3)C(=O)N2`, the half-inhibitory concentration (IC50) on Aurora kinase A amounted to 21 nM.

For the compound `O=C1Nc2ccc(NS(=O)(=O)c3ccccc3)cc2/C1=C/c1[nH]c2c(c1CCC(=O)N1CCCC1)C(=O)CCC2`, the 50% inhibitory concentration (IC50) was greater than 10000 nM in the assay with HCT-116 [1]; 719 nM at Aurora kinase B [4]; greater than 10000 nM with HT-29; 218 nM on Aurora kinase A; greater than 10000 nM with HeLa.

For `O=C(O)CCc1c(/C=C2\C(=O)Nc3ccc(F)cc32)[nH]c2c1C(=O)CCCC2`, the inhibition in assay [5] is 45.5%; on Aurora kinase B [3], 2%.
